Test results: US10174053B2, “2 substituted cephem compounds” (Glaxo Group Limited, priority 2012, dated 2019)
≈ marks a conversion by molar mass, not a printed value.

Tests used:
Test in all cases: In vitro antimicrobial activity, MIC by broth microdilution (CLSI)
Assay type in all cases: cell-based
A. baumannii JMI2346 = conditions: Acinetobacter baumannii, JMI2346; OXA-51, TEM, ESBL and OXA-type carbapenemase producing strain; 5×10^5 cfu/mL; cation-adjusted Iso-Sensitest broth containing human Apo-transferrin; read-out: Minimum Inhibitory Concentration (MIC) A. baumannii JMI:2346
Protocol: (§1) Compound (I) of the invention was evaluated for in vitro antimicrobial activity thereof.
(§2) Measurement of Minimum Inhibitory Concentration (MIC: μg/mL) was conducted according to CLSI (Clinical and Laboratory Standards Institute) method, and the amount of bacteria for inoculation was 5×10^5 cfu/mL, and cation-adjusted Iso-Sensitest broth containing human Apo-transferrin was used as a test medium, and the experiment was conducted using broth microdilution method. The bacteria used are listed below.

A. baumannii JMI7 = conditions: Acinetobacter baumannii, JMI7; PER-1, OXA-23, 51, ESBL and OXA-type carbapenemase producing strain; 5×10^5 cfu/mL; cation-adjusted Iso-Sensitest broth containing human Apo-transferrin; read-out: Minimum Inhibitory Concentration (MIC) A. baumannii JMI:7
Protocol: as §1, §2

E. Coli JMI1890 = conditions: Escherichia coli; PER-1, TEM-1, ESBL producing strain; 5×10^5 cfu/mL; cation-adjusted Iso-Sensitest broth containing human Apo-transferrin; read-out: Minimum Inhibitory Concentration (MIC) E. Coli JMI:1890
Protocol: as §1, §2

K. pneumoniae SR01358 = conditions: Klebsiella pneumoniae, SR01358; KPC-2, ESBL and KPC-type carbapenemase producing strain; 5×10^5 cfu/mL; cation-adjusted Iso-Sensitest broth containing human Apo-transferrin; read-out: Minimum Inhibitory Concentration (MIC) K. pneumoniae SR01358
Protocol: as §1, §2

Row | Structure (SMILES) | MIC (A. baumannii JMI2346) [mg/L] | MIC (A. baumannii JMI7) [mg/L] | MIC (E. Coli JMI1890) [mg/L] | MIC (K. pneumoniae SR01358) [mg/L]
1 | C[C@@H]1S[C@@H]2[C@H](NC(=O)/C(=N\OC(C)(C)C(=O)[O-])c3csc(N)n3)C(=O)N2C(C(=O)[O-])=C1C[N+]12CCC(CC1)N(C(=O)c1c[nH]c3cc(O)c(O)cc3c1=O)CC2.[Na+] [Compound I-174, (4S,6R,7R)-7-((Z)-2-(2-aminothiazol-4-yl)-2-(((2-carboxypropan-2-yl)oxy)imino)acetamido)-3-((4-(6,7-dihydroxy-4-oxo-1,4-dihydroquinoline-3-carbonyl)-1,4-diazabicyclo[3.2.2]nonan-1-ium-1-yl)methyl)-4-methyl-8-oxo-5-thia-1-azabicyclo[4.2.0]oct-2-ene-2-carboxylate, Sodium salt] | 1 | 0.25 | 4 | ≤ 0.031
2 | C[C@@H]1S[C@@H]2[C@H](NC(=O)/C(=N\O[C@@H](CC(=O)[O-])C(=O)[O-])c3csc(N)n3)C(=O)N2C(C(=O)[O-])=C1C[N@+]1(C)[C@@H]2CC[C@H]1C[C@@H](NC(=O)C(=O)c1cc(O)c(O)c(Cl)c1)C2.[Na+].[Na+] [Compound I-13] | 8 | 2 | 1 | 0.063
3 | C[C@@H]1S[C@@H]2[C@H](NC(=O)/C(=N\OC(C)(C)C(=O)[O-])c3csc(N)n3)C(=O)N2C(C(=O)[O-])=C1C[N+]1(CCNC(=O)c2cc(O)c(O)c(Cl)c2)CCCC1.[Na+] [Compound I-61] | 16 | 2 | 2 | 0.063
4 | C[C@@H]1S[C@@H]2[C@H](NC(=O)/C(=N\OC(C)(C)C(=O)[O-])c3csc(N)n3)C(=O)N2C(C(=O)[O-])=C1C[N+]12CCC(CC1)N(C(=O)c1cc(O)c(O)c(F)c1)CC2.[Na+] [Compound I-67] | 2 | 1 | 0.25 | ≤ 0.031
5 | C[C@@H]1S[C@@H]2[C@H](NC(=O)/C(=N\OC(C)(C)C(=O)[O-])c3csc(N)n3)C(=O)N2C(C(=O)O)=C1C[N+]12CCC(CNC(=O)/C(=N\O)c3ccc(O)c(O)c3)(CC1)CC2 [Compound I-92] | 16 (≈ 20 µM) | 4 (≈ 4.99 µM) | 2 (≈ 2.5 µM) | 0.125 (≈ 0.156 µM)
6 | C[C@@H]1S[C@@H]2[C@H](NC(=O)/C(=N\OC(C)(C)C(=O)[O-])c3csc(N)n3)C(=O)N2C(C(=O)O)=C1C[N+]1(CCNC(=O)c2ccc(O)c(O)c2Cl)CCCC1 [Compound I-52] | 4 (≈ 5.22 µM) | 1 (≈ 1.31 µM) | 0.25 (≈ 0.326 µM) | ≤ 0.031
7 | C[C@@H]1S[C@@H]2[C@H](NC(=O)/C(=N\OC(C)(C)C(=O)[O-])c3csc(N)n3)C(=O)N2C(C(=O)[O-])=C1C[N+]12CCC(CC1)N(C(=O)c1c[nH]c3cc(O)c(O)c(Cl)c3c1=O)CC2.[Na+] [Compound I-177, (4S,6R,7R)-7-((Z)-2-(2-aminothiazol-4-yl)-2-(((2-carboxypropan-2-yl)oxy)imino)acetamido)-3-((4-(5-chloro-6,7-dihydroxy-4-oxo-1,4-dihydroquinoline-3-carbonyl)-1,4-diazabicyclo[3.2.2]nonan-1-ium-1-yl)methyl)-4-methyl-8-oxo-5-thia-1-azabicyclo [4.2.0]oct-2-ene-2-carboxylate, Sodium salt] | 0.5 | 0.25 | 0.063 | ≤ 0.031
8 | C[C@@H]1S[C@@H]2[C@H](NC(=O)/C(=N\OC(C)(C)C(=O)[O-])c3csc(N)n3)C(=O)N2C(C(=O)O)=C1C[N+]12CCC(CNC(=O)/C(=N\OCC(=O)O)c3ccc(O)c(O)c3Cl)(CC1)CC2 [Compound I-98] | 4 (≈ 4.48 µM) | 0.5 (≈ 0.56 µM) | 0.063 (≈ 0.0705 µM) | ≤ 0.031
9 | C[C@@H]1S[C@@H]2[C@H](NC(=O)/C(=N\OC(C)(C)C(=O)[O-])c3csc(N)n3)C(=O)N2C(C(=O)[O-])=C1C[N+]1(C)[C@@H]2CC[C@H]1C[C@@H](N1C(=O)c3cc(O)c(O)cc3C1=O)C2.[Na+] (some centres unmarked) [Compound I-77] | 1 | 0.5 | 0.25 | ≤ 0.031
10 | C[C@@H]1S[C@@H]2[C@H](NC(=O)/C(=N\OC(C)(C)C(=O)[O-])c3csc(N)n3)C(=O)N2C(C(=O)[O-])=C1C[N+]12CCC(Cn3ncc4c(Cl)c(O)c(O)cc4c3=O)(CC1)CC2.[Na+] [Compound I-113] | 4 | 0.25 | 0.25 | ≤ 0.031
11 | C[C@@H]1S[C@@H]2[C@H](NC(=O)/C(=N\OC(C)(C)C(=O)[O-])c3csc(N)n3)C(=O)N2C(C(=O)[O-])=C1C[N@+]1(C)[C@@H]2CC[C@H]1C[C@@H](NC(=O)C(=O)c1cc(O)c(O)c(Cl)c1)C2.[Na+] [Compound I-12] | 4 | 1 | 0.25 | ≤ 0.031
12 | C[C@@H]1S[C@@H]2[C@H](NC(=O)/C(=N\OC(C)(C)C(=O)[O-])c3csc(N)n3)C(=O)N2C(C(=O)[O-])=C1C[N+]12CCC(CNC(=O)c3cc(O)c(O)c(Cl)c3)(CC1)CC2.[Na+] [Compound I-60] | 4 | 1 | 1 | ≤ 0.031
13 | C[C@@H]1S[C@@H]2[C@H](NC(=O)/C(=N\OC(C)(C)C(=O)O)c3csc(N)n3)C(=O)N2C(C(=O)[O-])=C1C[N+]12CCC(CC1)N(C(=O)c1cn(C)c3cc(O)c(O)c(Cl)c3c1=O)CC2 [Compound I-160, (4S,6R,7R)-7-((Z)-2-(2-aminothiazol-4-yl)-2-(((2-carboxypropan-2-yl)oxy)imino)acetamido)-3-((4-(5-chloro-6,7-dihydroxy-1-methyl-4-oxo-1,4-dihydroquinoline-3-carbonyl)-1,4-diazabicyclo[3.2.2]nonan-1-ium-1-yl)methyl)-4-methyl-8-oxo-5-thia-1-azabicyclo[4.2.0]oct-2-ene-2-carboxylate] | 0.5 (≈ 0.582 µM) | 0.25 (≈ 0.291 µM) | ≤ 0.031 | 0.063 (≈ 0.0733 µM)
14 | C[C@@H]1S[C@@H]2[C@H](NC(=O)/C(=N\OC(C)(C)C(=O)[O-])c3csc(N)n3)C(=O)N2C(C(=O)[O-])=C1C[N+]12CCC(CC1)N(C(=O)C(=O)c1ccc(O)c(O)c1)CC2.[Na+] [Compound I-108] | 2 | 0.5 | 0.5 | ≤ 0.031
15 | C[C@@H]1S[C@@H]2[C@H](NC(=O)/C(=N\OC(C)(C)C(=O)[O-])c3csc(N)n3)C(=O)N2C(C(=O)O)=C1C[N+]12CCC(CNC(=O)/C(=N\OCC(=O)O)c3ccc(O)c(O)c3Cl)(CC1)C2 [Compound I-101] | 0.5 (≈ 0.569 µM) | 0.25 (≈ 0.284 µM) | 0.063 (≈ 0.0716 µM) | ≤ 0.031
16 | C[C@@H]1S[C@@H]2[C@H](NC(=O)/C(=N\OC(C)(C)C(=O)[O-])c3csc(N)n3)C(=O)N2C(C(=O)O)=C1C[N@+]12CCC[C@H]1CN(C(=O)c1ccc(O)c(O)c1Cl)CC2 [Compound I-41] | 4 (≈ 5.14 µM) | 1 (≈ 1.28 µM) | 1 (≈ 1.28 µM) | 0.063 (≈ 0.0809 µM)
17 | C[C@@H]1S[C@@H]2[C@H](NC(=O)/C(=N\OC(C)(C)C(=O)[O-])c3csc(N)n3)C(=O)N2C(C(=O)O)=C1C[N+]12CCC(CNN3C(=O)c4cc(O)c(O)cc4C3=O)(CC1)CC2 [Compound I-123] | 4 (≈ 5.01 µM) | 0.5 (≈ 0.626 µM) | 0.125 (≈ 0.156 µM) | ≤ 0.031
18 | C[C@H]1S[C@@H]2[C@H](NC(=O)/C(=N\OC(C)(C)C(=O)[O-])c3csc(N)n3)C(=O)N2C(C(=O)O)=C1C[N+]1(CCNC(=O)c2ccc(O)c(O)c2Cl)CCCC1 [Compound I-53] | 4 (≈ 5.22 µM) | 2 (≈ 2.61 µM) | 0.25 (≈ 0.326 µM) | 0.25 (≈ 0.326 µM)
19 | C[C@@H]1S[C@@H]2[C@H](NC(=O)/C(=N\OC(C)(C)C(=O)[O-])c3csc(N)n3)C(=O)N2C(C(=O)O)=C1C[N+]12CCC(CNC(=O)/C(=N\O)c3cc(O)c(O)c(F)c3)(CC1)CC2 [Compound I-136] | 2 (≈ 2.44 µM) | 1 (≈ 1.22 µM) | 0.5 (≈ 0.611 µM) | ≤ 0.031
20 | C[C@@H]1S[C@@H]2[C@H](NC(=O)/C(=N\OC(C)(C)C(=O)[O-])c3csc(N)n3)C(=O)N2C(C(=O)[O-])=C1C[N@+]1(C)[C@@H]2CC[C@H]1C[C@@H](NC(=O)C(=O)c1cc(O)c(O)c(F)c1)C2.[Na+] [Compound I-83] | 2 | 0.5 | 0.063 | ≤ 0.031
21 | C[C@@H]1S[C@@H]2[C@H](NC(=O)/C(=N\OC(C)(C)C(=O)[O-])c3csc(N)n3)C(=O)N2C(C(=O)[O-])=C1C[N+]1(C)[C@@H]2CC[C@H]1C[C@@H](NC(=O)c1cc(O)c(O)c(Cl)c1)C2.[Na+] (some centres unmarked) [Compound I-66] | 1 | 0.25 | 0.063 | ≤ 0.031
22 | C[C@@H]1S[C@@H]2[C@H](NC(=O)/C(=N\OC(C)(C)C(=O)[O-])c3csc(N)n3)C(=O)N2C(C(=O)[O-])=C1C[N+]12CCC(CNC(=O)C(=O)c3cc(O)c(O)c(F)c3)(CC1)CC2.[Na+] [Compound I-81] | 8 | 2 | 0.5 | ≤ 0.031
23 | C[C@@H]1S[C@@H]2[C@H](NC(=O)/C(=N\OC(C)(C)C(=O)[O-])c3csc(N)n3)C(=O)N2C(C(=O)O)=C1C[N+]1(CCNC(=O)c2ccc(O)c(O)c2Cl)CCCCC1 [Compound I-43] | 4 (≈ 5.13 µM) | 1 (≈ 1.28 µM) | 0.5 (≈ 0.641 µM) | 0.063 (≈ 0.0807 µM)
